Measured values published in ChEMBL document CHEMBL1201862, “PubChem BioAssay data set” (2004).
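How tested: cells in 96-well plates exposed to compound for 48 hours at five concentrations. Abbreviation: GI50, concentration required for 50% inhibition of growth.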 The source made the active and inactive calls. No stated cut-off is given here; in the data, active = GI50 up to about 1.1 µM and inactive = higher.

What was measured:
Test in all cases: growth of human tumour cells (NCI), 48 h
HL-60 = tested on: HL-60
NCI-H23 = tested on: NCI-H23
K562 = tested on: K562
HCC 2998 = tested on: HCC 2998
IGROV-1 = tested on: IGROV-1
CAKI-1 = tested on: CAKI-1
DLD-1 = tested on: DLD-1
SF-268 = tested on: SF-268
M14 = tested on: M14
EKVX = tested on: EKVX
SF-539 = tested on: SF-539
UO-31 = tested on: UO-31
SK-OV-3 = tested on: SK-OV-3
CCRF-CEM = tested on: CCRF-CEM
SK-MEL-2 = tested on: SK-MEL-2
NCI/ADR-RES = tested on: NCI/ADR-RES
BT-549 = tested on: BT-549
PC-3 = tested on: PC-3
MDA-N = tested on: MDA-N
DU-145 = tested on: DU-145

| SMILES | GI50 (HL-60) | GI50 (NCI-H23) | GI50 (K562) | GI50 (HCC 2998) | GI50 (IGROV-1) | GI50 (CAKI-1) | GI50 (DLD-1) | GI50 (SF-268) | GI50 (M14) | GI50 (EKVX) | GI50 (SF-539) | GI50 (UO-31) | GI50 (SK-OV-3) | GI50 (CCRF-CEM) | GI50 (SK-MEL-2) | GI50 (NCI/ADR-RES) | GI50 (BT-549) | GI50 (PC-3) | GI50 (MDA-N) | GI50 (DU-145) |
| --- | --- | --- | --- | --- | --- | --- | --- | --- | --- | --- | --- | --- | --- | --- | --- | --- | --- | --- | --- | --- |
| C[C@H](OCc1ccccc1)C(=O)N1CCS(=O)(=O)N2CCC[C@H]2C1=O | > 100 µM (inactive) | > 100 µM (inactive) | > 100 µM (inactive) | > 100 µM (inactive) | > 100 µM (inactive) | > 100 µM (inactive) | > 100 µM (inactive) | > 100 µM (inactive) | > 100 µM (inactive) | > 100 µM (inactive) | > 100 µM (inactive) | > 100 µM (inactive) | > 100 µM (inactive) | > 100 µM (inactive) |  |  |  |  |  |  |
| COC[C@@H](/N=C/N1CCc2cc(OC)c(OC)cc2C1)C(C)(C)C | > 100 µM (inactive) | > 100 µM (inactive) | > 100 µM (inactive) |  | > 100 µM (inactive) | > 100 µM (inactive) | > 100 µM (inactive) | > 100 µM (inactive) | > 100 µM (inactive) | > 100 µM (inactive) | > 100 µM (inactive) | > 100 µM (inactive) | > 100 µM (inactive) | > 100 µM (inactive) |  |  |  |  |  |  |
| CN1C(=O)C(Cl)(C(Cl)(Cl)S(=O)(=O)O)C(=O)c2ccccc21.c1ccncc1 (configuration not stated) | > 100 µM (inactive) | > 100 µM (inactive) | > 100 µM (inactive) | > 100 µM (inactive) | > 100 µM (inactive) | > 100 µM (inactive) | > 100 µM (inactive) | > 100 µM (inactive) | > 100 µM (inactive) | > 100 µM (inactive) | > 100 µM (inactive) | 91.2 µM (inactive) | > 100 µM (inactive) | > 100 µM (inactive) |  |  |  |  |  |  |
| CS(=O)(=O)c1ccc(COP(N)(=O)N(CCCl)CCCl)cc1 (configuration not stated) |  | > 100 µM (inactive) | > 100 µM (inactive) | > 100 µM (inactive) | > 100 µM (inactive) | > 100 µM (inactive) | > 100 µM (inactive) | > 100 µM (inactive) | > 100 µM (inactive) |  | > 100 µM (inactive) | > 100 µM (inactive) | > 100 µM (inactive) | > 100 µM (inactive) | > 100 µM (inactive) |  |  |  |  |  |
| COC(=O)C1=C(c2ccc(OC)c(OC)c2)OC(c2ccc(OC)c(OC)c2)C1 (configuration not stated) | 9.82 µM (inactive) | 48.5 µM (inactive) | 32.1 µM (inactive) | 66.1 µM (inactive) | 25.1 µM (inactive) |  | 5.93 µM (inactive) | 35.6 µM (inactive) | 38.7 µM (inactive) | 39.7 µM (inactive) | 33.4 µM (inactive) | 28.8 µM (inactive) | 32.6 µM (inactive) | 31.4 µM (inactive) | 57.9 µM (inactive) |  |  |  |  |  |
| CC[C@H](C)C(=O)O[C@H]1C[C@@H](C)C=C2C=C[C@H](C)[C@H](CC[C@@H]3C[C@@H](O)CC(=O)O3)[C@H]21 [LOVASTATIN] | 8.83 µM (inactive) | 1.02 µM (active) | 19.5 µM (inactive) | 15.1 µM (inactive) | 5.96 µM (inactive) | 1.17 µM (inactive) | > 30 µM (inactive) |  | 12.3 µM (inactive) | > 30 µM (inactive) |  | 6.27 µM (inactive) | 11.8 µM (inactive) | 18.4 µM (inactive) | 13.2 µM (inactive) |  |  |  |  |  |
| CCCc1nn(C)c(CCC(=O)N(Cc2ccccc2)Cc2ccccc2)c1CC | > 100 µM (inactive) | > 100 µM (inactive) |  | > 100 µM (inactive) | > 100 µM (inactive) |  | > 100 µM (inactive) | > 100 µM (inactive) | > 100 µM (inactive) | > 100 µM (inactive) | > 100 µM (inactive) | > 100 µM (inactive) | > 100 µM (inactive) | > 100 µM (inactive) | > 100 µM (inactive) |  |  |  |  |  |
| CCN1CCC(O)(c2ccc(Cl)cc2)C(C(=O)c2ccc(Cl)cc2)C1 (configuration not stated) | > 100 µM (inactive) | > 100 µM (inactive) | > 100 µM (inactive) | > 100 µM (inactive) | > 100 µM (inactive) |  | > 100 µM (inactive) | > 100 µM (inactive) | > 100 µM (inactive) | > 100 µM (inactive) | 26.2 µM (inactive) | 35.2 µM (inactive) | > 100 µM (inactive) | 49.5 µM (inactive) | > 100 µM (inactive) |  |  |  |  |  |
| CCc1nc(N)nc(N)c1-c1ccc(Cl)cc1 [PYRIMETHAMINE] | 2.38 µM (inactive) | 5.79 µM (inactive) | 0.542 µM (active) | 6.25 µM (inactive) | 9.86 µM (inactive) | 71.9 µM (inactive) |  | 9.77 µM (inactive) | 5.71 µM (inactive) | 7.55 µM (inactive) | 20.7 µM (inactive) | 16.4 µM (inactive) | 74.3 µM (inactive) | 3.33 µM (inactive) | 38.4 µM (inactive) | 30.9 µM (inactive) | 25.8 µM (inactive) | 6.5 µM (inactive) | 4.83 µM (inactive) | 18.7 µM (inactive) |
| C=CCOC1(CC=C)C(=O)OC2C(O)COC21O (configuration not stated) | > 100 µM (inactive) | > 100 µM (inactive) | > 100 µM (inactive) | > 100 µM (inactive) | > 100 µM (inactive) | > 100 µM (inactive) |  | > 100 µM (inactive) | > 100 µM (inactive) | > 100 µM (inactive) | > 100 µM (inactive) | > 100 µM (inactive) | > 100 µM (inactive) | > 100 µM (inactive) | > 100 µM (inactive) | > 100 µM (inactive) | > 100 µM (inactive) | > 100 µM (inactive) | > 100 µM (inactive) | > 100 µM (inactive) |
| O=C1C(Cl)=C(Nc2ccc(OC(F)(F)F)cc2)C(=O)c2c(O)ccc(O)c21 | 0.182 µM (active) | 0.303 µM (active) | 0.284 µM (active) | 0.544 µM (active) | 0.745 µM (active) | 1.6 µM (inactive) |  | 0.594 µM (active) | 0.423 µM (active) | 0.877 µM (active) | 1.73 µM (inactive) | 0.561 µM (active) | 1.66 µM (inactive) | 0.377 µM (active) | 0.292 µM (active) | 1.74 µM (inactive) | 0.855 µM (active) | 0.679 µM (active) | 2.22 µM (inactive) | 0.705 µM (active) |
| N/C(S)=N/N=C/c1ccc(N)cn1 | 1.91 µM (inactive) | 2.13 µM (inactive) | 3.1 µM (inactive) | 3.65 µM (inactive) | > 10 µM (inactive) | 3.78 µM (inactive) |  | 4.29 µM (inactive) | 2.21 µM (inactive) | > 10 µM (inactive) | 0.404 µM (active) | 2.28 µM (inactive) | 9.84 µM (inactive) | 1.93 µM (inactive) | > 10 µM (inactive) | 3.08 µM (inactive) | 3.48 µM (inactive) | 6.15 µM (inactive) | > 6.59 µM (inactive) | 2.75 µM (inactive) |
| O=[N+]([O-])/C=C/c1ccc(Cl)cc1Cl | 5.26 µM (inactive) | 19.2 µM (inactive) | 3.33 µM (inactive) | 15.5 µM (inactive) | 14.8 µM (inactive) | 16.3 µM (inactive) | 24.7 µM (inactive) | 21.3 µM (inactive) | 11.7 µM (inactive) |  | 17.1 µM (inactive) | 16.2 µM (inactive) |  | 3.62 µM (inactive) | 20.3 µM (inactive) |  |  |  |  |  |
